Like-named read-outs stand apart in the source and are kept apart here.
Key:
Caco-2-N cells = test: in vitro; assay type: cell-based, human; conditions: Fig 6B-6E, at tested concentrations, CellTiter-Glo
Experimental: (§1) Caco-2-N cells were seeded into 96-well plate (1×10^3 cells/well). After 12 hours, cells were treated with drugs with different concentrations. Cell viability was measured two days post treatment with CellTiter-Glo Luminescent Cell Viability Assay kit (Promega, G7570) following standard protocol. In brief, cells in 100 μl culture medium were added with 100 μl CellTiter-Glo reagent. After 15 minutes, luminescence was recorded with GloMax (Promega). CC50 was determined using logarithmic interpolation using GraphPad Prism software version 7.0.

in vitro = assay type: cell-based, human; conditions: human, n.d. = not detected
Experimental: as §1

SARS-CoV-2 GFP/ΔN trVLP = assay type: cell-based
[1] = system: SARS-CoV-2 strain nCoV-SH01; test: microbe, parasite or virus in culture; assay type: cell-based
SARS-CoV-2 = conditions: cited from earlier work
HCoV-OC43 = conditions: cited from earlier work
SARS-CoV-2 trVLP = assay type: cell-based
[2] = system: avian infectious bronchitis virus (IBV); conditions: cited from earlier work
[3] = Severe acute respiratory syndrome coronavirus 2, A549-ACE2

In the case of `Cc1cccc(C)c1OCC(=O)N[C@@H](Cc1ccccc1)[C@@H](O)C[C@H](Cc1ccccc1)NC(=O)[C@H](C(C)C)N1CCCNC1=O` [Lopinavir], the cytotoxic effect (Caco-2-N cells) is reported as “serious cytotoxicity at the IC50 concentration”, the CC50 (in vitro; Fig 6F, CellTiter-Glo, two days treatment) is reported as 19100 nM and the “Selectivity Index (SI)” value (SARS-CoV-2 GFP/ΔN trVLP) is reported as 2.18.

With `CC[C@@H](C(=O)[C@@H](C)[C@@H](O)[C@H](C)[C@@H]1O[C@@H]([C@@H](CC)C(=O)O)CC[C@@H]1C)[C@H]1O[C@]2(C=C[C@@H](O)[C@]3(CC[C@@](C)([C@H]4CC[C@](O)(CC)[C@H](C)O4)O3)O2)[C@H](C)C[C@@H]1C` [Salinomycin] the “selectivity index (SI = CC50/IC50)” value [1] was 7.13, the IC50 [1, 3] was 2840 nM and the CC50 (in vitro; Fig 7G hit compounds, cell line for this CC50 not stated) was 20200 nM. For the same compound, the “antiviral activity against SARS-CoV-2 infection in vitro” value (SARS-CoV-2) was “potent antiviral activity” and the “inhibition of HCoV-OC43 infection” value (HCoV-OC43) was “inhibit HCoV-OC43 infection”.

For `Cn1cc(C2=C(c3ccc(Cl)cc3Cl)C(=O)NC2=O)c2ccccc21` [SB216763], the “effect on GFP expression (trVLP production)” value (SARS-CoV-2 trVLP) was “inhibit GFP expression in a dose-dependent manner”.

In the case of `CC(C)c1nc(CN(C)C(=O)N[C@H](C(=O)N[C@@H](Cc2ccccc2)C[C@H](O)[C@H](Cc2ccccc2)NC(=O)OCc2cncs2)C(C)C)cs1` [Ritonavir], the cytotoxic effect (Caco-2-N cells) is reported as “serious cytotoxicity at the IC50 concentration”.

For `O[C@H]1[C@H]2c3cc4c(cc3CN3CCC(=C[C@@H]1O)[C@H]23)OCO4` [Lycorine chloride], the IC50 [1, 3] is listed as 773 nM and the “inhibition of HCoV-OC43 infection” value (HCoV-OC43) is listed as “inhibit HCoV-OC43 infection”.

For Monensin sodium, the IC50 ([1]; read-out: IC50) is listed as 632 nM, the “inhibition of IBV infection” value [2] is listed as “blocks avian infectious bronchitis virus (IBV) infection” and the “inhibition of HCoV-OC43 infection” value (HCoV-OC43) is listed as “inhibit HCoV-OC43 infection”.

In the case of Tubeimoside I, the IC50 ([1]; read-out: IC50) is reported as 1370 nM.

With GC376 the cytotoxic effect (Caco-2-N cells) was “no apparent cytotoxic effect”.

Work on `CO[C@@H]1C[C@@H](C[C@H]2CC[C@H](C)[C@H]([C@@H](C)C(=O)O)O2)O[C@]2(O[C@](C)([C@H]3CC[C@@](C)([C@@H]4O[C@@H]([C@H]5O[C@@](O)(CO)[C@H](C)C[C@@H]5C)C[C@@H]4C)O3)C[C@H]2C)[C@@H]1C` [Nigericin sodium] yielded an IC50 ([1]; read-out: IC50) of 11200 nM.

In the case of `[Cl-].[Li+]` [LiCl], the “effect on GFP expression (trVLP production)” value (SARS-CoV-2 trVLP) is reported as “inhibit GFP expression in a dose-dependent manner”.

For `CCC(CC)COC(=O)[C@H](C)N[P@](=O)(OC[C@H]1O[C@@](C#N)(c2ccc3c(N)ncnn23)[C@H](O)[C@@H]1O)Oc1ccccc1` [Remdesivir], the cytotoxic effect (Caco-2-N cells) was “no apparent cytotoxic effect”.

Reference: paper PMC7990224 (PLoS Pathogens, 2021)
